Test results from ChEMBL document CHEMBL3739304, “Non-nucleoside anti-HBV agents: advances in structural optimization and mechanism of action investigations” (Medchemcomm, 2015).

Legend:
Hepatitis B virus [1] = experiment: Inhibition of HBV in Huh7 cells by ELISA; assay type: functional, organism-based; settings: Huh-7
[2] = Cytotoxicity against human HuH7 cells; assay type: cell-based, Huh-7
Hepatitis B virus [3] = experiment: Inhibition of HBV DNA replication in HepAD38 cells; assay type: functional, organism-based
[4] = Cytotoxicity against human HepAD38 cells; assay type: cell-based; settings: read-out: TC50 (the source's name)
Hepatitis B virus [5] = experiment: Inhibition of HBV DNA replication in HepG2.2.15 cells; assay type: functional, organism-based
[6] = Selectivity index, ratio of cytotoxicity against human HepG2.2.15 cells to IC50 for HBV DNA replication in HepG2.2.15 cells; assay type: toxicity, cell-based; settings: read-out: Selectivity Index
Hepatitis B virus [7] = experiment: Inhibition of HBV DNA replication in AML-12 cells after 48 hrs by dot blot analysis; assay type: functional, organism-based; settings: AML12, 48 h
[8] = Cytotoxicity against mouse AML-12 cells after 48 hrs by MTT assay; assay type: cell-based
Hepatitis B virus [9] = experiment: Inhibition of HBV DNA replication in HepDES19 cells after 48 hrs by dot blot analysis; assay type: functional, organism-based; settings: HepDES19, 48 h
[10] = Cytotoxicity against human HepDES19 cells after 48 hrs by MTT assay; assay type: cell-based
Hepatitis B virus [11] = experiment: Inhibition of HBV DNA replication; assay type: functional, organism-based
Hepatitis B virus [12] = experiment: Inhibition of HBV virions secretion; assay type: functional, organism-based
Hepatitis B virus [13] = experiment: Inhibition of HBV antigen secretion; assay type: functional, organism-based
[14] = Cytotoxicity against human HepG2.2.15 cells assessed as cell viability; assay type: cell-based, HepG2 2.2.15; settings: read-out: TC50 (the source's name)
Hepatitis B virus [15] = experiment: Inhibition of HBV antigen secretion in HepDE19 cell after 7 days by ELISA; assay type: functional, organism-based; settings: HepDE19, 168 h
[16] = Cytotoxicity against human HepDE19 cells after 7 days by MTT assay; assay type: cell-based
[17] = Ratio of CC50 for human HepG2.2.15 cells to IC50 for HBV DNA replication in HepG2.2.15 cells; parameters: species or system HepG2 2.2.15
Hepatitis B virus [18] = experiment: Inhibition of HBV antigen secretion in HepG2.2.15 cells; assay type: functional, organism-based
[19] = Selectivity index, ratio of cytotoxicity against human HepG2.2.15 cells to IC50 for HBV antigen secretion in HepG2.2.15 cells; assay type: toxicity, cell-based; settings: read-out: Selectivity Index
Hepatitis B virus [20] = experiment: Inhibition of HBV DNA replication in HepG2 cells by southern blot analysis; assay type: functional, organism-based

O=C1OC(OCc2ccccc2)=N/C1=C\c1ccccc1
EC50 (Hepatitis B virus [1]): 5.4 µM | CC50 [2]: > 50 µM

COc1ccccc1/C(Br)=C(\NC(=O)c1ccc([N+](=O)[O-])cc1)C(=O)N1CCCCC1
EC50 (Hepatitis B virus [3]): 0.13 µM | EC90 (Hepatitis B virus [3]): 0.92 µM | CC50 [4]: > 61 µM

Cc1cc(C)n2[nH]c(=S)nc2n1
EC50 (Hepatitis B virus [1]): 0.12 µM | CC50 [2]: > 50 µM

CCOC(=O)c1cc2cc(OC)c(O)c(CN3CCCC3)c2nc1CSc1ccccc1
IC50 (Hepatitis B virus [5]): 36.8 µM | selectivity ratio [6]: 2.8

CCC(C)NS(=O)(=O)c1ccc(F)c(C(=O)NCc2ccc(F)c(F)c2)c1 (stereo unspecified)
EC50 (Hepatitis B virus [7]): 0.3 µM | CC50 at 48 h [8]: > 50 µM | EC50 (Hepatitis B virus [9]): 0.1 µM | CC50 at 48 h [10]: > 50 µM

CC(C)Cc1sc(-c2nccs2)nc1C(=O)NCc1ccc(F)cc1
IC50 (Hepatitis B virus [11]): 0.14 µM

Clc1cc2nc(N3CCN(c4ccccn4)CC3)[nH]c2cc1Cl
EC50 (Hepatitis B virus [12]): 0.6 µM | EC50 (Hepatitis B virus [13]): 1.5 µM

CCOC(=O)C1=C(C)NC(c2ncccc2F)=NC1c1ccc(F)cc1Cl (stereo unspecified)
IC50 (Hepatitis B virus [5]): 0.15 µM | CC50 [14]: 50 µM

O=C(NCc1ccccc1)c1ccc(Cl)c(S(=O)(=O)N2CCCCCC2)c1
EC50 (Hepatitis B virus [7]): 1.7 µM | CC50 at 48 h [8]: > 50 µM | EC50 (Hepatitis B virus [9]): 1.6 µM | CC50 at 48 h [10]: > 50 µM

Cc1nc2cc(NC(=O)c3ccc(S(=O)(=O)N(C)Cc4ccccc4)cc3)ccc2s1
EC50 (Hepatitis B virus [15]): 0.35 µM | CC50 at 168 h [16]: > 2.57 µM

O=C(CN(c1cc(C(F)(F)F)ccc1Cl)S(=O)(=O)c1ccccc1)NCc1ccncc1
EC50 (Hepatitis B virus [15]): 4.55 µM | CC50 at 168 h [16]: > 50 µM

O=C(NCc1ccc(F)c(F)c1)c1cc(S(=O)(=O)NC2CCCC2)ccc1F
EC50 (Hepatitis B virus [7]): 0.39 µM | CC50 at 48 h [8]: > 50 µM | EC50 (Hepatitis B virus [9]): 0.14 µM | CC50 at 48 h [10]: > 50 µM

CN(C)C(=O)c1ccc2c(c1)nc(-c1nccs1)n2C
IC50 (Hepatitis B virus [5]): 1.1 µM | Ratio CC50/IC50 [17]: >90

CCOC(=O)C1=C(C)NC(c2nccs2)=N[C@H]1c1ccc(F)cc1Cl
IC50 (Hepatitis B virus [5]): 0.03 µM | CC50 [14]: 25 µM

COc1cc2nc3c(cc2c(Cn2ccnc2C)c1O)CSc1cc(F)ccc1-3
IC50 (Hepatitis B virus [5]): 1.7 µM | selectivity ratio [6]: 60.3

CCOC(=O)c1cc2cc(OC)c(O)c(CN3C=NCC3)c2nc1C[S+]([O-])c1ccc(F)c(F)c1 (stereo unspecified)
IC50 (Hepatitis B virus [5]): 2.6 µM | IC50 (Hepatitis B virus [18]): 14.2 µM | selectivity ratio [6]: 61.6 | selectivity ratio [19]: 11.3

CCOC(=O)C1=C(CN2CCOCC2)NC(c2nccs2)=NC1c1ccc(F)cc1Br (stereo unspecified)
IC50 (Hepatitis B virus [20]): 0.012 µM

CCCCC/N=C(\c1ccc(=O)n(CCCCC)c1)c1ccc(OC)cc1O
IC50 (Hepatitis B virus [13]): 5 µM | IC50 (Hepatitis B virus [11]): 30 µM

O=C(N/C(C(=O)N1CCCCC1)=C(/Cl)c1ccccc1)c1ccccc1
EC50 (Hepatitis B virus [3]): 1.2 µM | EC90 (Hepatitis B virus [3]): 13 µM | CC50 [4]: > 81 µM
